Legend:
[1] = system: E. coli K12; experiment: Bacterial growth inhibition with PNA 249 (without peptide, FtsZ) and peptide 250, 100% Mueller-Hinton broth (Table 18); assay type: cell-based, Escherichia coli; conditions: for Growth inhibition effect: low concentration end
[2] = system: test culture; assay type: cell-based; conditions: 37° C., 16 hours

## H-CG-KLAKALKKLL-NH2 (H-CGKLAKALKKLL-NH2) [PNA 250, peptide alone, also used for PNA 174]
[1]
  Peptide concentration at which the peptide alone may show growth inhibition effect: above 2500 nM
  Growth inhibition effect: neither 249 nor 250 alone nor 249 and 250 together show any useful effect

## H-KFFKFFKFFK-ado-TGA CTA GAT GAG-NH2 [PNA 136]
[2]
  Growth inhibition: No growth inhibition was detected

## H-ado-TTC AAA CAT AGT-NH2 [PNA 249]
[1]
  Growth inhibition effect: neither 249 nor 250 alone nor 249 and 250 together show any useful effect

From US20030199431A1, “Modified peptide nucleic acid (PNA) molecules” (priority 1999, published 2003)
